Where two headings read alike, the source gives them in different places.
Assay: Brain distribution after single intraperitoneal dose in FVB wild-type, Bcrp1-/-, Mdr1a/b-/- and Mdr1a/b-/- Bcrp1-/- mice
Type: in vivo, mouse (FVB)
Conditions: for DA (Distribution advantage) / concentration at 2 h / concentration at 6 h / Kp at 2 h / Kp at 6 h: 10 mg/kg i.p.; for concentration at 2 h / concentration at 6 h / Kp at 2 h / Kp at 6 h: FVB, mouse, 10 mg/kg; for concentration at 2 h / concentration at 6 h: intraperitoneal; for Kp at 2 h / Kp at 6 h: brain/plasma, ip, read-out: Kp brain (Cbrain/Cplasma)
Description: At 2 and 6 hours following administration of ispinesib, whole blood and brain samples were harvested, and blood samples were centrifuged for plasma separation. Additional details on the conduct of in vivo pharmacokinetic studies are described in the supplementary methods. The drug concentrations in all samples were measured by a specific and sensitive LC-MS/MS assay for ispinesib.
Kp=CbrainCplasma (Equation 4)
DA= Kp, knockoutKp, wildtype (Equation 5)

In the case of `Cc1ccc(C(=O)N(CCCN)[C@@H](c2nc3cc(Cl)ccc3c(=O)n2Cc2ccccc2)C(C)C)cc1` [Ispinesib, N-(3-aminopropyl)-N-[(1 R)-1-(3-benzyl-7-chloro-4-oxoquinazolin-2-yl)-2-methylpropyl]-4-methylbenzamide], the “DA (Distribution advantage)” value (2 hrs, Bcrp1a/b-/-) is reported as 1, the “DA (Distribution advantage)” value (2 hrs, Mdr1a/b-/-) is reported as 3 and the “DA (Distribution advantage)” value (2 hrs, Mdr1a/b-/- Bcrp1a/b-/-) is reported as 28. The “DA (Distribution advantage)” value (2 hrs, Wild-type) was 1, the “DA (Distribution advantage)” value (6 hrs, Bcrp1a/b-/-) was 1 and the “DA (Distribution advantage)” value (6 hrs, Mdr1a/b-/-) was 10. The “DA (Distribution advantage)” value (6 hrs, Mdr1a/b-/- Bcrp1a/b-/-) was 33, the “DA (Distribution advantage)” value (6 hrs, Wild-type) was 1 and the concentration at 2 h (brain, 2 hrs, Bcrp1a/b-/-, read-out: Cbrain) was 140 ± 20 ng/mL. For the same compound, the concentration at 2 h (brain, 2 hrs, Mdr1a/b-/- Bcrp1a/b-/-, read-out: Cbrain) was 3770 ± 670 ng/mL, the concentration at 2 h (brain, 2 hrs, Mdr1a/b-/-, read-out: Cbrain) was 580 ± 140 ng/mL and the concentration at 2 h (brain, 2 hrs, Wild-type, read-out: Cbrain) was 180 ± 90 ng/mL. For the same compound, the concentration at 6 h (brain, 6 hrs, Bcrp1a/b-/-, read-out: Cbrain) was 150 ± 30 ng/mL, the concentration at 6 h (brain, 6 hrs, Mdr1a/b-/- Bcrp1a/b-/-, read-out: Cbrain) was 5590 ± 2850 ng/mL and the concentration at 6 h (brain, 6 hrs, Mdr1a/b-/-, read-out: Cbrain) was 1100 ± 100 ng/mL. It also gave a concentration at 6 h (brain, 6 hrs, Wild-type, read-out: Cbrain) of 140 ± 80 ng/mL, a Kp at 2 h (2 hrs, Bcrp1a/b-/-) of 0.08 and a Kp at 2 h (2 hrs, Mdr1a/b-/- Bcrp1a/b-/-) of 3.07. It also gave a Kp at 2 h (2 hrs, Mdr1a/b-/-) of 0.35, a Kp at 2 h (2 hrs, Wild-type) of 0.11 and a Kp at 6 h (6 hrs, Bcrp1a/b-/-) of 0.15. The Kp at 6 h (6 hrs, Mdr1a/b-/- Bcrp1a/b-/-) was 5.2, the Kp at 6 h (6 hrs, Mdr1a/b-/-) was 1.52 and the Kp at 6 h (6 hrs, Wild-type) was 0.16. For the same compound, the concentration at 2 h (plasma, 2 hrs, Bcrp1a/b-/-, read-out: Cplasma) was 1740 ± 420 ng/mL, the concentration at 2 h (plasma, 2 hrs, Mdr1a/b-/- Bcrp1a/b-/-, read-out: Cplasma) was 1590 ± 1070 ng/mL and the concentration at 2 h (plasma, 2 hrs, Mdr1a/b-/-, read-out: Cplasma) was 1750 ± 730 ng/mL. It also gave a concentration at 2 h (plasma, 2 hrs, Wild-type, read-out: Cplasma) of 1610 ± 720 ng/mL, a concentration at 6 h (plasma, 6 hrs, Bcrp1a/b-/-, read-out: Cplasma) of 1060 ± 400 ng/mL and a concentration at 6 h (plasma, 6 hrs, Mdr1a/b-/- Bcrp1a/b-/-, read-out: Cplasma) of 1030 ± 210 ng/mL. The concentration at 6 h (plasma, 6 hrs, Mdr1a/b-/-, read-out: Cplasma) was 870 ± 540 ng/mL, the concentration at 6 h (plasma, 6 hrs, Wild-type, read-out: Cplasma) was 870 ± 540 ng/mL and the “efflux transporter substrate status” value (from brain distribution in transporter-deleted mice) was “a substrate for P-gp and Bcrp transporters”.

Reference: publication PMC7162859 (Scientific Reports, 2020)
